Source: publication PMC7409302 (Cancers, 2020)

Target: T1, androgen receptor (AR) (Homo sapiens, UniProt P10275, T878A)
T1 construct: endogenous full-length AR in LNCaP cells
T1 sequence (P10275 1-920 T878A): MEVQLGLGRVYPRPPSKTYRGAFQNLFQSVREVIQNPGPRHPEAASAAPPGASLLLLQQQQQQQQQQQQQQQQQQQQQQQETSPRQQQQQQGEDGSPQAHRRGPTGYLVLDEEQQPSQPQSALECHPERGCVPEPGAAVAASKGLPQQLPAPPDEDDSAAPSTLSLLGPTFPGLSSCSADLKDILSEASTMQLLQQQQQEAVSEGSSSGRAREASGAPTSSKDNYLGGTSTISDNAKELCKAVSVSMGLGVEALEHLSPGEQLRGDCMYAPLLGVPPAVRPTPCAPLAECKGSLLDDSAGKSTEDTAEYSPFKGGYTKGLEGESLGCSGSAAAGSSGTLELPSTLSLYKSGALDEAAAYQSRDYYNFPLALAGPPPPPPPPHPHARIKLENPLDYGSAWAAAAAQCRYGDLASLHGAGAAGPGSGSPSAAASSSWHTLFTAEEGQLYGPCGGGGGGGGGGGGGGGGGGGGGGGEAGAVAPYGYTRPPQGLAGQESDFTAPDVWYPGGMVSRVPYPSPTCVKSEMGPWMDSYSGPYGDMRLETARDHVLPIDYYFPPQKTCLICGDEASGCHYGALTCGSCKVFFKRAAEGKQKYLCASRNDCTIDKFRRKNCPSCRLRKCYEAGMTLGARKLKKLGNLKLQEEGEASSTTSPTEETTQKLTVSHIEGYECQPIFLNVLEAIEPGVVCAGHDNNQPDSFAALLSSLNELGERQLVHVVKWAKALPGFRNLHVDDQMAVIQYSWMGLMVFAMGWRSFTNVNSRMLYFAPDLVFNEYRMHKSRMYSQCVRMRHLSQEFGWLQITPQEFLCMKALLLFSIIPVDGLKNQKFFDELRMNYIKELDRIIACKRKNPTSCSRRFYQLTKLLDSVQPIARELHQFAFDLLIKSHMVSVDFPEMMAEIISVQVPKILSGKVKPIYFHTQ
Experiment: androgen (R1881)-induced PSA([…].1kb)-luciferase reporter in LNCaP cells
Assay type: cell-based

CC(C)(c1ccc(OC[C@H](O)CNS(C)(=O)=O)cc1)c1cc(Cl)c(OC[C@H](O)CCl)c(Cl)c1 [EPI-7170]
IC50: 1080 ± 550 nM
